Data reported in article PMC12288460, “The Agrobacterium fabrum efflux pump PecM is produced in response to the plant exudate 4-hydroxybenzaldehyde to avoid disruption of central metabolism” (Journal of Bacteriology, 2025).

Target: T1, PecS (Agrobacterium fabrum, UniProt Q7D1T4)
T1 construct: full length, N-terminal His6-tag kept (pET100), E. coli BL21(DE3)pLysS; 18,923 Da tagged; dimer by known biology of MarR family
Assay: DNase I footprinting of pecS-pecM DNA, loss of PecS protection
Conditions: 86 nM PecS, 250 mM Tris pH 8.0, 100 mM NaCl, room temperature, relief of DNA binding

T1 sequence (Q7D1T4 entry or part of it): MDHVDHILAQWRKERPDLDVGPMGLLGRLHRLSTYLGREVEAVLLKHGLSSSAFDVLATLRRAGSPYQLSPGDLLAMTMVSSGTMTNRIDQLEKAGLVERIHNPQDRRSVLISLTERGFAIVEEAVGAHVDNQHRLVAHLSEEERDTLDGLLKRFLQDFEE

Structure (SMILES) | DNase I footprinting of pecS-pecM DNA, loss of PecS protection (2.5 mM urate (dissolved in 0.4 M NaOH)) | DNase I footprinting of pecS-pecM DNA, loss of PecS protection (10 mM xanthine (dissolved in 0.4 M NaOH))
O=c1[nH]c(=O)c2[nH]c(=O)[nH]c2[nH]1 [urate] | This result indicates a direct interaction between these purines and PecS | 
O=c1[nH]c(=O)c2[nH]cnc2[nH]1 [xanthine] |  | This result indicates a direct interaction between these purines and PecS
